Read-outs that look alike come from different tables or passages of the source.
Tested on: serum cholesterol and serum triglyceride
Experiment: Hypolipidemic activity of 2,3-dihydrophthalazine-1,4-diones in normal male mice (Example 11, Table II)
Assay type: in vivo, CF1 male mice
Details: Mus musculus, ip
Method: Hypolipidemic Activity of 2,3-Dihydrophthalazine-1,4-Diones in Normal Male Mice
Each of the prepared compounds was administered intraperitoneally, in a dosage of 20 milligrams per kilogram of body weight per day, to a group of six CF1 male mice, each weighing approximately 25 grams, for 16 days. On Days 9 and 16 blood was obtained from each of the tested mice by tail vein bleeding. The blood serum so obtained was separated by centrifugation for three minutes. […] Serum triglyceride levels were obtained on Day 16 by use of the Bio-Dynamics/bm Triglyceride Kit.
In addition to the above-described treated mice, an untreated control group of six mice were similarly tested on Days 9 and 16 to determine their serum cholesterol and serum triglyceride blood levels.

[1] = 216 h, CF1 male mice, 20 mg/kg/day intraperitoneally, Day 9, read-out: Serum Cholesterol Day 9, percent control ± standard deviation
[2] = 384 h, CF1 male mice, 20 mg/kg/day intraperitoneally, Day 16, read-out: Serum Cholesterol Day 16, percent control ± standard deviation
[3] = 384 h, CF1 male mice, 20 mg/kg/day intraperitoneally, Day 16, read-out: Serum Triglyceride Day 16, percent control ± standard deviation

SMILES	response vs control in vivo at 20 mg/kg/day [1]	response vs control in vivo at 20 mg/kg/day [2]	response vs control in vivo at 20 mg/kg/day [3]	response vs control in vivo at 20 mg/kg/day (216 h, read-out: Serum Cholesterol Day 9, percent control ± standard deviation)	response vs control in vivo at 20 mg/kg/day (384 h, read-out: Serum Cholesterol Day 16, percent control ± standard deviation)	response vs control in vivo at 20 mg/kg/day (384 h, read-out: Serum Triglyceride Day 16, percent control ± standard deviation)
CCn1[nH]c(=O)c2ccccc2c1=O [Compound 4, 2-Ethyl-2,3-Dihydrophthalazine-1,4-Dione]	71 ± 7%	58 ± 5%	59 ± 4%			
CCOC(=O)Cn1[nH]c(=O)c2ccccc2c1=O [Compound 19, 2-(1'-Carbethoxymethyl)-2,3-Dihydrophthalazine-1,4-Dione]	78 ± 6%	69 ± 5%	73 ± 4%			
Cc1ccc(-n2nc(O)c3ccccc3c2=O)cc1 [Compound 27]	89 ± 5%	73 ± 6%	57 ± 2%			
O=c1[nH][nH]c(=O)c2c(Cl)cccc12 [Compound 12, 5-Chloro-2,3-Dihydrophthalazine-1,4-Dione]	72 ± 5%	69 ± 4%	86 ± 5%			
O=c1c2ccccc2c(O)nn1-c1cccc(Cl)c1 [Compound 23]	73 ± 4%	62 ± 3%	69 ± 5%			
Cc1ccc2c(=O)[nH][nH]c(=O)c2c1 [Compound 15, 6-methyl-2,3-dihydrophthalazine-1,4-dione]	66 ± 8%	55 ± 4%	54 ± 4%			
CCCCCOc1nn(CCCCC)c(=O)c2ccccc12 [Compound 11]	86 ± 6%	63 ± 4%	59 ± 3%			
O=c1[nH]nc(O)c2cc(Cl)ccc12 [Compound 13]	72 ± 4%	64 ± 5%	65 ± 4%			
CCCCOc1nn(CCCC)c(=O)c2ccccc12 [Compound 9]	65 ± 4%	61 ± 3%	66 ± 3%			
CCOc1nn(CC)c(=O)c2ccccc12 [Compound 5]	77 ± 5%	76 ± 4%	57 ± 3%			
O=C(O)CCn1[nH]c(=O)c2ccccc2c1=O [Compound 18, 2-(2'-Carboxyethyl)-2,3-Dihydrophthalazine-1,4-Dione]	54 ± 6%	34 ± 3%	60 ± 4%			
Cn1nc(O)c2ccccc2c1=O [Compound 2]	72 ± 5%	77 ± 3%	66 ± 4%			
Cc1ccccc1-n1nc(O)c2ccccc2c1=O [Compound 25]	82 ± 7%	66 ± 5%	76 ± 6%			
CCCCCn1nc(O)c2ccccc2c1=O [Compound 10]	74 ± 3%	71 ± 5%	55 ± 4%			
Cc1cccc2c(=O)[nH]nc(O)c12 [Compound 14]	80 ± 4%	75 ± 3%	73 ± 3%			
O=c1c2ccccc2c(O)nn1-c1ccccc1Cl [Compound 22]	72 ± 5%	67 ± 3%	68 ± 4%			
COc1cccc2c(=O)[nH]nc(O)c12 [Compound 16]	82 ± 5%	78 ± 3%	81 ± 4%			
Cc1cccc(-n2nc(O)c3ccccc3c2=O)c1 [Compound 26]	87 ± 6%	74 ± 4%	65 ± 3%			
CCCCn1[nH]c(=O)c2ccccc2c1=O [Compound 8, 2-n-butyl-2,3-dihydrophthalazine-1,4-dione]	59 ± 2%	58 ± 3%	73 ± 4%			
O=c1[nH]n(-c2ccccc2)c(=O)c2ccccc12 [Compound 21, 2-Phenyl-2,3-Dihydrophthalazine-1,4-Dione]				59 ± 5%	58 ± 4%	65 ± 3%
COc1nn(C)c(=O)c2ccccc12 [Compound 3, 2-Methyl-4-Methoxyphthalazine-1(2H)-One]	84 ± 6%	81 ± 5%	64 ± 5%			
O=c1[nH]n(-c2ccc(Cl)cc2)c(=O)c2ccccc12 [Compound 24, 2-(4'-chlorophenyl)-2,3-dihydrophthalazine-1,4-dione]	60 ± 3%	54 ± 4%	59 ± 5%			
COc1ccc2c(=O)[nH]nc(O)c2c1 [Compound 17]	77 ± 5%	76 ± 4%	69 ± 3%			
CC(=O)CCn1[nH]c(=O)c2ccccc2c1=O [Compound 20, 2-(3'-Oxobutyl)-2,3-Dihydrophthalazine-1,4-Dione]	72 ± 6%	59 ± 3%	70 ± 7%			
CCCn1[nH]c(=O)c2ccccc2c1=O [Compound 6, 2-n-propyl-2,3-dihydrophthalazine-1,4-dione]	77 ± 6%	68 ± 5%	62 ± 2%			
CCCOc1nn(CCC)c(=O)c2ccccc12 [Compound 7]	68 ± 3%	69 ± 5%	69 ± 2%			

From US4861778A, “2,3-dihydrophthalazine-1,4-diones” (priority 1986, dated 1989)
